Measurements taken from US20250034127A1, “AUTOPHAGY INDUCING COMPOUNDS AND USES THEREOF, IN PARTICULAR FOR DISEASES OF THE CNS” (Samsara Therapeutics Inc., priority 2021, published 2025).

What follows are compounds tested on Human osteosarcoma U2OS cells (assay: Assay to measure lysosome and autolysosome (acidic vesicle) formation in U2OS cells). Settings: Homo sapiens, concentration of 0.8 μM, read-out: Activity (percentage increase in acidic vesicle formation over the DMSO-treated control).
Type: cell-based
Experimental: Lysosomes play a fundamental role in the autophagic pathway by fusing with autophagosomes and creating ‘autolysosomes’ in order to digest their contents. Stimulation of lysosome and autolysosome formation by a compound is indicative of a stimulation of autophagy. The ability of compounds to stimulate lysosome and autolysosome formation, and thus autophagy, in live cells was assessed via fluorescent microscopy using various fluorescent stains for labelling and tracking acidic organelles (including lysosomes and autolysosomes) such as: LysoView™ 650 (70059 and 70059-T, Biotium), Lyso View™633 (70058 and 70058-T, Biotium) and LysoTracker™ Deep Red (L12492, ThermoFisher Scientific). The cellular phenotype was quantitatively assessed for the induction of acidic vesicle formation and compared to a non-treated control, thus providing a measure of the ability of the compound under investigation to stimulate autophagy.
Representative procedure using LysoView™ 633 dye or LysoTracker™ Deep Red dye: Human osteosarcoma U2OS cells (40,000 cells/well) were seeded in a 24 well glass bottom plate (Sensoplate, Greiner Bio-One) and were incubated overnight in a humidified atmosphere at 37° C. and 5% CO2. Cells were grown in DMEM (Gibco) supplemented with 10% Fetal Bovine Serum (FBS) and 100 units/ml penicillin and 100 μg/ml streptomycin (Invitrogen). After the attachment period, cells were treated with different compounds of interest (at various concentrations in DMSO) or DMSO (non-treated control) in cell culture medium and were incubated for 24 hours. Compound-containing medium was removed and cells were incubated with pre-warmed cell culture medium containing 1× Lyso View™ 633 (70058 and 70058-T, Biotium) or 50 nM LysoTracker™ Deep Red (L12492, ThermoFisher Scientific) for 45 minutes at 37° C. Finally, cell nuclei were stained for 10 minutes using Hoechst 33342 (1 μg/mL) and then the medium was replaced with fresh medium. The 24 well plate was then fitted into a heated stage on the microscope and cells maintained at 37° C. Images were captured using appropriate filter set for Cy5 and DAPI detection with the EVOS M7000 Microscope (ThermoFisher Scientific). The cellular phenotype was visually assessed for the induction of acidic vesicle formation relative to the non-treated control; multiple images were acquired and analysed using ImageJ or Cell Profiler.
Work on `CCN1CCC(NC(=O)c2csc(-c3cnn(-c4cccnn4)c3)n2)CC1` [Compound 231, N-(1-ethylpiperidin-4-yl)-2-[1-(pyridazin-3-yl)-1H-pyrazol-4-yl]-1,3-thiazole-4-carboxamide] yielded an activation at 0.8 µM of 10 to 30%.
`C[C@H]1CN(C(=O)c2cc(-c3cnn(-c4ccccc4)c3)c[nH]2)CCN1` [Compound 255, (3S)-3-methyl-1-[4-(1-phenyl-1H-pyrazol-4-yl)-1H-pyrrole-2-carbonyl]piperazine] was tested, and the activation at 0.8 µM was 50 to 100%.
Work on `CCN1CCC(N(C)C(=O)c2csc(-c3cnn(-c4ccccc4C(F)(F)F)c3)n2)CC1` [Compound 217, N-(1-ethylpiperidin-4-yl)-N-methyl-2-{1-[2-(trifluoromethyl)phenyl]-1H-pyrazol-4-yl}-1,3-thiazole-4-carboxamide] yielded an activation at 0.8 µM of 10 to 30%.
`C[C@H]1CN(C(=O)c2csc(-c3cnn(-c4cnccn4)c3)n2)CCN1` [Compound 232, 2-(4-{4-[(3S)-3-methylpiperazine-1-carbonyl]-1,3-thiazol-2-yl}-1H-pyrazol-1-yl)pyrazine] was tested, and the activation at 0.8 µM was 50 to 100%.
Work on `CCN1CCC(NC(=O)c2csc(-c3cnn(-c4ccc(F)cc4)c3)n2)CC1` [Compound 213, N-(1-ethylpiperidin-4-yl)-2-[1-(4-fluorophenyl)-1H-pyrazol-4-yl]-1,3-thiazole-4-carboxamide] yielded an activation at 0.8 µM of 10 to 30%.
`O=C(NCCN1CCCCC1)c1csc(-c2cnn(-c3ccccc3)c2)n1` [Compound 202, 2-(1-phenyl-1H-pyrazol-4-yl)-N-[2-(piperidin-1-yl)ethyl]-1,3-thiazole-4-carboxamide] showed an activation at 0.8 µM of 30 to 50%.
`C[C@H]1CN(C(=O)c2csc(-c3cnn(-c4ncccn4)c3)n2)CCN1` [Compound 249, 2-(4-{4-[(3S)-3-methylpiperazine-1-carbonyl]-1,3-thiazol-2-yl}-1H-pyrazol-1-yl)pyrimidine] gave an activation at 0.8 µM of 10 to 30%.
Compound `C[C@H]1CN(C(=O)c2csc(-c3cnn(-c4cccnc4)c3)n2)CCN1` [Compound 223, (3S)-3-methyl-1-{2-[1-(pyridin-3-yl)-1H-pyrazol-4-yl]-1,3-thiazole-4-carbonyl}piperazine] has an activation at 0.8 µM of 10 to 30%.
With `CCN1CCC(N(C)C(=O)c2csc(-c3cnn(-c4ccccn4)c3)n2)CC1` [Compound 221, N-(1-ethylpiperidin-4-yl)-N-methyl-2-[1-(pyridin-2-yl)-1H-pyrazol-4-yl]-1,3-thiazole-4-carboxamide] the activation at 0.8 µM was 10 to 30%.
`CCN1CCN(C(=O)c2csc(-c3cnn(-c4ccccc4)c3)n2)CC1` [Compound 236, 1-ethyl-4-[2-(1-phenyl-1H-pyrazol-4-yl)-1,3-thiazole-4-carbonyl]piperazine] was tested, and the activation at 0.8 µM was 10 to 30%.
`CCN1CCC(N(C)C(=O)c2csc(-c3cnn(-c4ncccn4)c3)n2)CC1` [Compound 250, N-(1-ethylpiperidin-4-yl)-N-methyl-2-[1-(pyrimidin-2-yl)-1H-pyrazol-4-yl]-1,3-thiazole-4-carboxamide] gave an activation at 0.8 µM of 10 to 30%.
In the case of `CN(CCN(C)C1CCCCC1)C(=O)c1csc(-c2cnn(-c3ccccc3)c2)n1` [Compound 190, N-{2-[cyclohexyl(methyl)amino]ethyl}-N-methyl-2-(1-phenyl-1H-pyrazol-4-yl)-1,3-thiazole-4-carboxamide], the activation at 0.8 µM was 10 to 30%.
With `C[C@H]1CN(C(=O)c2csc(-c3cnn(-c4cccnn4)c3)n2)CCN1` [Compound 229, 3-(4-{4-[(3S)-3-methylpiperazine-1-carbonyl]-1,3-thiazol-2-yl}-1H-pyrazol-1-yl)pyridazine] the activation at 0.8 µM was 30 to 50%.
`CCN1C[C@H]2C[C@@H]1CC2NC(=O)c1csc(-c2cnn(-c3ccccc3)c2)n1` (stereo partly drawn) [Compound 244, N-[(1R,4R)-2-ethyl-2-azabicyclo[2.2.1]heptan-5-yl]-2-(1-phenyl-1H-pyrazol-4-yl)-1,3-thiazole-4-carboxamide] gave an activation at 0.8 µM of 10 to 30%.
For `CCN1CCC(NC(=O)c2csc(-c3cnn(-c4cnccn4)c3)n2)CC1` [Compound 234, N-(1-ethylpiperidin-4-yl)-2-[1-(pyrazin-2-yl)-1H-pyrazol-4-yl]-1,3-thiazole-4-carboxamide], the activation at 0.8 µM was 30 to 50%.
With `CCN1CCC(N(C)C(=O)c2csc(-c3cnn(-c4cnccn4)c3)n2)CC1` [Compound 233, N-(1-ethylpiperidin-4-yl)-N-methyl-2-[1-(pyrazin-2-yl)-1H-pyrazol-4-yl]-1,3-thiazole-4-carboxamide] the activation at 0.8 µM was 50 to 100%.
`CCN1C[C@@H]2C[C@H]1CC2NC(=O)c1csc(-c2cnn(-c3ccccc3)c2)n1` (stereo partly drawn) [Compound 246, N-[(1S,4S)-2-ethyl-2-azabicyclo[2.2.1]heptan-5-yl]-2-(1-phenyl-1H-pyrazol-4-yl)-1,3-thiazole-4-carboxamide] showed an activation at 0.8 µM of 10 to 30%.
`CC(=O)N1CCN(C(=O)c2csc(-c3cnn(-c4ccccc4)c3)n2)CC1` [Compound 198, 1-{4-[2-(1-phenyl-1H-pyrazol-4-yl)-1,3-thiazole-4-carbonyl]piperazin-1-yl}ethan-1-one] showed an activation at 0.8 µM of 10 to 30%.
`CC1(C)CN(C(=O)c2csc(-c3cnn(-c4ccccc4)c3)n2)CCN1` [Compound 235, 3,3-dimethyl-1-[2-(1-phenyl-1H-pyrazol-4-yl)-1,3-thiazole-4-carbonyl]piperazine] showed an activation at 0.8 µM of 30 to 50%.
Work on `CCN1CCC(NC(=O)c2csc(-c3cnn(-c4ccncc4)c3)n2)CC1` [Compound 228, N-(1-ethylpiperidin-4-yl)-2-[1-(pyridin-4-yl)-1H-pyrazol-4-yl]-1,3-thiazole-4-carboxamide] yielded an activation at 0.8 µM of 10 to 30%.
For `CCN1CCC(N(C)C(=O)c2cc(-c3nnc(-c4ccccc4)s3)cs2)CC1` [Compound 258, N-(1-ethylpiperidin-4-yl)-N-methyl-4-(5-phenyl-1,3,4-thiadiazol-2-yl)thiophene-2-carboxamide], the activation at 0.8 µM was 10 to 30%.
With `CCN1CCC(NC(=O)c2ccc(-c3cnn(-c4ccccc4)c3)[nH]2)CC1` [Compound 214, N-(1-ethylpiperidin-4-yl)-5-(1-phenyl-1H-pyrazol-4-yl)-1H-pyrrole-2-carboxamide] the activation at 0.8 µM was 10 to 30%.
Work on `CCN1CCC(N(C)C(=O)c2csc(-c3cnn(-c4cccnc4)c3)n2)CC1` [Compound 224, N-(1-ethylpiperidin-4-yl)-N-methyl-2-[1-(pyridin-3-yl)-1H-pyrazol-4-yl]-1,3-thiazole-4-carboxamide] yielded an activation at 0.8 µM of 50 to 100%.
`CCN1C[C@@H]2C[C@H]1CC2N(C)C(=O)c1csc(-c2cnn(-c3ccccc3)c2)n1` (stereo partly drawn) [Compound 245, N-[(1S,4S)-2-ethyl-2-azabicyclo[2.2.1]heptan-5-yl]-N-methyl-2-(1-phenyl-1H-pyrazol-4-yl)-1,3-thiazole-4-carboxamide] gave an activation at 0.8 µM of 10 to 30%.

Same assay, conditions: concentration of 10 μM, 24 hours
For `C[C@H]1CN(C(=O)c2csc(-c3cnn(-c4cnccn4)c3)n2)CCN1` [Compound 232, 2-(4-{4-[(3S)-3-methylpiperazine-1-carbonyl]-1,3-thiazol-2-yl}-1H-pyrazol-1-yl)pyrazine], the “acidic vesicle formation relative to a DMSO-treated control” value was “only a slight increase”.
For `CCN1CCC(N(C)C(=O)c2csc(-c3cnn(-c4ccncc4)c3)n2)CC1` [Compound 227, N-(1-ethylpiperidin-4-yl)-N-methyl-2-[1-(pyridin-4-yl)-1H-pyrazol-4-yl]-1,3-thiazole-4-carboxamide], the “acidic vesicle formation relative to a DMSO-treated control” value was “only a slight increase”.
For `C[C@H]1CC(N(C)C(=O)c2csc(-c3cnn(-c4ccccc4)c3)n2)CCN1` (stereo partly drawn) [Compound 241, N-methyl-N-[(2S)-2-methylpiperidin-4-yl]-2-(1-phenyl-1H-pyrazol-4-yl)-1,3-thiazole-4-carboxamide], the “acidic vesicle formation relative to a DMSO-treated control” value was “only a slight increase”.
For `C[C@H]1CN(C(=O)c2csc(-c3cnn(-c4cccnc4)c3)n2)CCN1` [Compound 223, (3S)-3-methyl-1-{2-[1-(pyridin-3-yl)-1H-pyrazol-4-yl]-1,3-thiazole-4-carbonyl}piperazine], the “acidic vesicle formation relative to a DMSO-treated control” value was “only a slight increase”.
With `CCN1CCC(N(C)C(=O)c2cc(-c3nnc(-c4ccccc4)s3)cs2)CC1` [Compound 258, N-(1-ethylpiperidin-4-yl)-N-methyl-4-(5-phenyl-1,3,4-thiadiazol-2-yl)thiophene-2-carboxamide] the “acidic vesicle formation relative to a DMSO-treated control” value was “only a slight increase”.
